Measurements from ChEMBL document CHEMBL1201862, “PubChem BioAssay data set” (2004).
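Growth conditions: 96-well plates. Treatment: test compound, 48 hours, 5 concentrations. Analysis: linear interpolation between bracketing concentrations; unreached endpoints set to highest concentration. GI50: concentration for 50% inhibition of growth.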 Active and inactive are the calls of the source. No stated cut-off is given here; in the data, active = GI50 up to about 1.1 µM and inactive = higher.

Tests used:
Assay in all cases: inhibition of tumour cell growth, NCI panel, 48 h
SN12C = test system: SN12C
HOP-62 = test system: HOP-62
HL-60 = test system: HL-60
SF-539 = test system: SF-539
RPMI-8226 = test system: RPMI-8226
Malme-3M = test system: Malme-3M
HCC 2998 = test system: HCC 2998
UACC-62 = test system: UACC-62
SNB-75 = test system: SNB-75
HOP-92 = test system: HOP-92
SK-OV-3 = test system: SK-OV-3
MOLT-4 = test system: MOLT-4
UACC-257 = test system: UACC-257
COLO 205 = test system: COLO 205
HCT-116 = test system: HCT-116
786-0 = test system: 786-0
T47D = test system: T47D
TK-10 = test system: TK-10
DU-145 = test system: DU-145
PC-3 = test system: PC-3
NCI-H23 = test system: NCI-H23
OVCAR-3 = test system: OVCAR-3
IGROV-1 = test system: IGROV-1
NCI-H522 = test system: NCI-H522
ACHN = test system: ACHN
LOX IMVI = test system: LOX IMVI
UO-31 = test system: UO-31
OVCAR-4 = test system: OVCAR-4
Hs-578T = test system: Hs-578T
U-251 = test system: U-251
A549 = test system: A549
NCI-H226 = test system: NCI-H226
HT-29 = test system: HT-29
EKVX = test system: EKVX
K562 = test system: K562
KM12 = test system: KM12
CAKI-1 = test system: CAKI-1
BT-549 = test system: BT-549
SF-268 = test system: SF-268
SF-295 = test system: SF-295
MDA-N = test system: MDA-N
SK-MEL-5 = test system: SK-MEL-5
SK-MEL-2 = test system: SK-MEL-2
SK-MEL-28 = test system: SK-MEL-28
MCF7 = test system: MCF7
RXF 393 = test system: RXF 393
SR = test system: SR
MDA-MB-231 = test system: MDA-MB-231
NCI/ADR-RES = test system: NCI/ADR-RES
MDA-MB-435 = test system: MDA-MB-435
OVCAR-5 = test system: OVCAR-5
M14 = test system: M14
SNB-19 = test system: SNB-19
SW-620 = test system: SW-620
HCT-15 = test system: HCT-15
CCRF-CEM = test system: CCRF-CEM
OVCAR-8 = test system: OVCAR-8
NCI-H460 = test system: NCI-H460

## CC1(C)C=C(/C=N/Nc2ccc([N+](=O)[O-])cc2)C(C#N)=C(O)C1(C#N)C#N
SN12C
  GI50: > 100 µM (inactive)
HOP-62
  GI50: > 100 µM (inactive)
HL-60
  GI50: > 100 µM (inactive)
SF-539
  GI50: > 100 µM (inactive)
RPMI-8226
  GI50: > 100 µM (inactive)
Malme-3M
  GI50: > 100 µM (inactive)
HCC 2998
  GI50: > 100 µM (inactive)
UACC-62
  GI50: > 100 µM (inactive)
SNB-75
  GI50: > 100 µM (inactive)
HOP-92
  GI50: > 100 µM (inactive)
SK-OV-3
  GI50: > 100 µM (inactive)
MOLT-4
  GI50: > 100 µM (inactive)
UACC-257
  GI50: > 100 µM (inactive)
COLO 205
  GI50: > 100 µM (inactive)
HCT-116
  GI50: > 100 µM (inactive)
786-0
  GI50: > 100 µM (inactive)
T47D
  GI50: > 100 µM (inactive)
TK-10
  GI50: > 100 µM (inactive)
DU-145
  GI50: > 100 µM (inactive)
PC-3
  GI50: > 100 µM (inactive)
NCI-H23
  GI50: > 100 µM (inactive)
OVCAR-3
  GI50: > 100 µM (inactive)
IGROV-1
  GI50: > 100 µM (inactive)
NCI-H522
  GI50: > 100 µM (inactive)
ACHN
  GI50: > 100 µM (inactive)
LOX IMVI
  GI50: > 100 µM (inactive)
UO-31
  GI50: > 100 µM (inactive)
OVCAR-4
  GI50: > 100 µM (inactive)
Hs-578T
  GI50: > 100 µM (inactive)
U-251
  GI50: > 100 µM (inactive)
A549
  GI50: > 100 µM (inactive)
NCI-H226
  GI50: > 100 µM (inactive)
HT-29
  GI50: > 100 µM (inactive)
EKVX
  GI50: > 100 µM (inactive)
K562
  GI50: > 100 µM (inactive)
KM12
  GI50: > 100 µM (inactive)
CAKI-1
  GI50: > 100 µM (inactive)
BT-549
  GI50: > 100 µM (inactive)
SF-268
  GI50: > 100 µM (inactive)
SF-295
  GI50: > 100 µM (inactive)
MDA-N
  GI50: > 100 µM (inactive)
SK-MEL-5
  GI50: > 100 µM (inactive)
SK-MEL-2
  GI50: > 100 µM (inactive)
SK-MEL-28
  GI50: > 100 µM (inactive)
MCF7
  GI50: > 100 µM (inactive)
RXF 393
  GI50: > 100 µM (inactive)
SR
  GI50: > 100 µM (inactive)
MDA-MB-231
  GI50: > 100 µM (inactive)
NCI/ADR-RES
  GI50: > 100 µM (inactive)
MDA-MB-435
  GI50: > 100 µM (inactive)
OVCAR-5
  GI50: > 100 µM (inactive)
M14
  GI50: > 100 µM (inactive)
SNB-19
  GI50: > 100 µM (inactive)
SW-620
  GI50: > 100 µM (inactive)
HCT-15
  GI50: > 100 µM
CCRF-CEM
  GI50: > 100 µM (inactive)
OVCAR-8
  GI50: > 100 µM (inactive)
NCI-H460
  GI50: > 100 µM (inactive)

## COc1ccc2cc(/C=N\NC(=O)Nc3ccc([N+](=O)[O-])cc3)ccc2c1
SN12C
  GI50: 12.4 µM (inactive)
HOP-62
  GI50: 14.8 µM (inactive)
HL-60
  GI50: 11 µM (inactive)
SF-539
  GI50: 8.24 µM (inactive)
RPMI-8226
  GI50: 13.8 µM (inactive)
Malme-3M
  GI50: 12.3 µM (inactive)
HCC 2998
  GI50: 14.2 µM (inactive)
UACC-62
  GI50: 13.8 µM (inactive)
SNB-75
  GI50: 13.2 µM (inactive)
HOP-92
  GI50: 16 µM (inactive)
SK-OV-3
  GI50: 11.9 µM (inactive)
MOLT-4
  GI50: 16.5 µM (inactive)
UACC-257
  GI50: 14.6 µM (inactive)
COLO 205
  GI50: 13.1 µM (inactive)
HCT-116
  GI50: 11.6 µM (inactive)
786-0
  GI50: 8.59 µM (inactive)
T47D
  GI50: 14.2 µM (inactive)
TK-10
  GI50: 7.96 µM (inactive)
DU-145
  GI50: 7.41 µM (inactive)
PC-3
  GI50: 11.8 µM (inactive)
NCI-H23
  GI50: 11.4 µM (inactive)
OVCAR-3
  GI50: 18.4 µM (inactive)
IGROV-1
  GI50: 13.8 µM (inactive)
NCI-H522
  GI50: 13.5 µM (inactive)
ACHN
  GI50: 13.9 µM (inactive)
LOX IMVI
  GI50: 12 µM (inactive)
UO-31
  GI50: 13.6 µM (inactive)
OVCAR-4
  GI50: 5.04 µM (inactive)
Hs-578T
  GI50: 17.5 µM (inactive)
U-251
  GI50: 13.6 µM (inactive)
A549
  GI50: 11.2 µM (inactive)
NCI-H226
  GI50: > 10 µM (inactive)
HT-29
  GI50: 11.5 µM (inactive)
EKVX
  GI50: 14 µM (inactive)
K562
  GI50: 14.8 µM (inactive)
KM12
  GI50: 11.3 µM (inactive)
CAKI-1
  GI50: 13.5 µM (inactive)
BT-549
  GI50: 12.7 µM (inactive)
SF-268
  GI50: 12.8 µM (inactive)
SF-295
  GI50: 13.8 µM (inactive)
MDA-N
  GI50: 13 µM (inactive)
SK-MEL-5
  GI50: 11.7 µM (inactive)
SK-MEL-2
  GI50: 13.3 µM (inactive)
SK-MEL-28
  GI50: 14.6 µM (inactive)
MCF7
  GI50: 14.4 µM (inactive)
RXF 393
  GI50: 11.2 µM (inactive)
SR
  GI50: > 10 µM (inactive)
MDA-MB-231
  GI50: 13.9 µM (inactive)
NCI/ADR-RES
  GI50: 13.6 µM (inactive)
MDA-MB-435
  GI50: 14.1 µM (inactive)
OVCAR-5
  GI50: 18.5 µM (inactive)
M14
  GI50: 22.6 µM (inactive)
SNB-19
  GI50: 13.2 µM (inactive)
SW-620
  GI50: 17.5 µM (inactive)
HCT-15
  GI50: 15.1 µM
CCRF-CEM
  GI50: > 10 µM (inactive)
OVCAR-8
  GI50: 11.7 µM (inactive)
NCI-H460
  GI50: 12.4 µM (inactive)

## Cc1c(CCCl)c(=O)n2c([nH]c3ccccc32)c1C#N
SN12C
  GI50: 1.36 µM (inactive)
HOP-62
  GI50: 1.82 µM (inactive)
HL-60
  GI50: 1.55 µM (inactive)
SF-539
  GI50: 1.48 µM (inactive)
RPMI-8226
  GI50: 1.3 µM (inactive)
Malme-3M
  GI50: 0.678 µM (active)
UACC-62
  GI50: 1.34 µM (inactive)
SNB-75
  GI50: 1.45 µM (inactive)
HOP-92
  GI50: 1.5 µM (inactive)
SK-OV-3
  GI50: 2.1 µM (inactive)
MOLT-4
  GI50: 0.237 µM (active)
UACC-257
  GI50: 2.73 µM (inactive)
COLO 205
  GI50: 0.148 µM (active)
HCT-116
  GI50: 0.614 µM (active)
786-0
  GI50: 1.51 µM (inactive)
T47D
  GI50: 1.51 µM (inactive)
TK-10
  GI50: 2.54 µM (inactive)
DU-145
  GI50: 2.21 µM (inactive)
PC-3
  GI50: 1.45 µM (inactive)
NCI-H23
  GI50: 1.53 µM (inactive)
OVCAR-3
  GI50: 1.73 µM (inactive)
IGROV-1
  GI50: 1.77 µM (inactive)
ACHN
  GI50: 1.43 µM (inactive)
LOX IMVI
  GI50: 0.619 µM (active)
UO-31
  GI50: 1.91 µM (inactive)
OVCAR-4
  GI50: 1.77 µM (inactive)
Hs-578T
  GI50: 3.22 µM (inactive)
U-251
  GI50: 1.79 µM (inactive)
A549
  GI50: 1.78 µM (inactive)
NCI-H226
  GI50: 2.02 µM (inactive)
HT-29
  GI50: 1.6 µM (inactive)
EKVX
  GI50: 1.84 µM (inactive)
K562
  GI50: 1.34 µM (inactive)
KM12
  GI50: 1.75 µM (inactive)
CAKI-1
  GI50: 1.46 µM (inactive)
BT-549
  GI50: 1.91 µM (inactive)
SF-268
  GI50: 1.95 µM (inactive)
SF-295
  GI50: 1.66 µM (inactive)
MDA-N
  GI50: 1.61 µM (inactive)
SK-MEL-5
  GI50: 1.42 µM (inactive)
SK-MEL-2
  GI50: 2.79 µM (inactive)
SK-MEL-28
  GI50: 1.87 µM (inactive)
MCF7
  GI50: 1.61 µM (inactive)
RXF 393
  GI50: 1.76 µM (inactive)
SR
  GI50: 0.527 µM (active)
MDA-MB-231
  GI50: 1.52 µM (inactive)
NCI/ADR-RES
  GI50: 1.27 µM (inactive)
MDA-MB-435
  GI50: 1.83 µM (inactive)
OVCAR-5
  GI50: 2.33 µM (inactive)
M14
  GI50: 1.6 µM (inactive)
SW-620
  GI50: 0.973 µM (active)
HCT-15
  GI50: 1.57 µM
CCRF-CEM
  GI50: 0.402 µM (active)
OVCAR-8
  GI50: 1.6 µM (inactive)
NCI-H460
  GI50: 1.72 µM (inactive)
